Assay results reported in patent US12441725B2, “ISO-citrate dehydrogenase (IDH) inhibitor” (ZHEJIANG METON PHARMACEUTICAL CO., LTD, priority 2019, dated 2025).

Key:
IDH1 R132H = biological target: T1, IDH1 R132H (Homo sapiens, UniProt O75874, R132H); experiment: Biochemical assay for IDH inhibition (NADPH fluorescence), mutant IDH1 R132H; details: 50 nM IDH1-R132H, 1 hour pre-incubation, in triplet
T1 construct: 6xHis
In short: (§1)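 Mutant enzyme (25 nM R132C or 50 nM R132H) was preincubated 1 h at room temperature with compound in pH 7.5 Tris buffer containing 1.33 mM α-KG, and the reaction was then started with NADPH (80 μM solution). NADPH consumption was followed by fluorescence (Ex 340/Em 460 nm) for 15 min. IC50 was derived from background-corrected linear rates relative to vehicle, run in triplicate.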

IDH1 R132C = biological target: T2, IDH1 R132C (Homo sapiens, UniProt O75874, R132C); experiment: Biochemical assay for IDH inhibition (NADPH fluorescence), mutant IDH1 R132C; details: 25 nM IDH1-R132C, 1 hour pre-incubation, in triplet
T2 construct: 6xHis
T2 sequence (O75874 whole entry R132C): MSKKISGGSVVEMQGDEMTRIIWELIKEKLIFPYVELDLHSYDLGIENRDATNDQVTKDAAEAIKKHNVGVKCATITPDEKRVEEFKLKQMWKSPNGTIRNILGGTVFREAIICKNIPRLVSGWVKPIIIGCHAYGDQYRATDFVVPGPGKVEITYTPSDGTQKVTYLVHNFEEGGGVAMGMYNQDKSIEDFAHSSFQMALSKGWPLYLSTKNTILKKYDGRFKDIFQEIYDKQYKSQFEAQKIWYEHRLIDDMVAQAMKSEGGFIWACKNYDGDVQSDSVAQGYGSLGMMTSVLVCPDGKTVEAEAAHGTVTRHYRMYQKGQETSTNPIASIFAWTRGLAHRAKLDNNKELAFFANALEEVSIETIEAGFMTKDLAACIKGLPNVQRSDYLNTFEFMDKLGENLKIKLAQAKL
In short: as §1

[1] = biological target: T3, IDH (endogenous IDH1 R132C) in HT1080 cell (Homo sapiens, UniProt O75874, R132C); experiment: Cell-based assay for IDH inhibition (decrease of D-2-HG) in HT1080 cells; details: human fibrosarcoma cell line HT1080, 16 hours treatment, D-2-HG by LC-MS, in triplet
T3 construct: which harbor endogenous heterozygous IDH1 R132C and R132H mutation respectively and accumulate D-2-HG
T3 sequence (O75874 2-414 R132C): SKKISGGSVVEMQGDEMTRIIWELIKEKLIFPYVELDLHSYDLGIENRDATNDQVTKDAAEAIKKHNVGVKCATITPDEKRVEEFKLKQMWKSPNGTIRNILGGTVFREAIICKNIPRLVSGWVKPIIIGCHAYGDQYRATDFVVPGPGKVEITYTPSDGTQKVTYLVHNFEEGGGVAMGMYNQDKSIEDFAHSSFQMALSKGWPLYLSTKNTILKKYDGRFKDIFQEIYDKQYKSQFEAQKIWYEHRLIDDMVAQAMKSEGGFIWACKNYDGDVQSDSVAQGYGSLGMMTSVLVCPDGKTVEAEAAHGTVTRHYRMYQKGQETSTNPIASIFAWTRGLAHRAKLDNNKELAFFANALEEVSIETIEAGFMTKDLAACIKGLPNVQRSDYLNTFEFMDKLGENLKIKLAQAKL
In short: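 HT1080 cells with endogenous IDH1 R132C, grown in DMEM/10% FBS, treated with compound at several concentrations for 16 h. Metabolites extracted in cold 40% methanol/40% acetonitrile and D-2-HG measured by HILIC LC-MS/MS, normalized to glutamate. IC50 from D-2-HG relative to DMSO controls; run in triplicate.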

T1 sequence (O75874 whole entry R132H): as the sequence (O75874 whole entry R132C) above, with C132H counted along it

| IC50 (IDH1 R132H) [nM] | IC50 (IDH1 R132C) [nM] | IC50 [1] [nM] | SMILES |
| --- | --- | --- | --- |
| 100 to 500 | 100 to 500 | 100 to 500 | CCN1Cc2c(ccnc2N[C@@H](C)c2cc(F)c(-c3cn(C(C)(C)C)cn3)cc2F)C1=O [Compound 160, (S)-4-((1-(4-(1-(tert-butyl)-1H-imidazol-4-yl)-2,5-difluorophenyl)ethyl)amino)-2-ethyl-2,3-dihydro-1H-pyrrolo[3,4-c]pyridin-1-one] |
| > 1000 | > 1000 | > 1000 | CCN1Cc2c(ccnc2N[C@@H](C)c2ccc(-c3ccnc(C(C)(C)C)c3)cn2)C1=O [Compound 46, (S)-4-((1-(2′-(tert-butyl)-[3,4′-bipyridin]-6-yl)ethyl)amino)-2-ethyl-2,3-dihydro-1H-pyrrolo[3,4-c]pyridin-1-one] |
| < 100 | 100 to 500 | < 100 | CCN1Cc2c(ccnc2N[C@@H](C)c2cc(F)c(-c3cc(C(C)(C)F)c(C#N)cn3)cc2F)C1=O [Compound 163, (S)-6-(4-(1-((2-ethyl-1-oxo-2,3-dihydro-1H-pyrrolo[3,4-c]pyridin-4-yl)amino)ethyl)-2,5-difluorophenyl)-4-(2-fluoropropan-2-yl)nicotinonitrile] |
| 100 to 500 | > 1000 | > 1000 | COCCN1Cc2c(ccnc2N[C@@H](C)c2cc(F)c(-c3ccnc(C(C)(C)C)c3)cc2F)C1=O [Compound 158, (S)-4-((1-(4-(2-(tert-butyl)pyridin-4-yl)-2,5-difluorophenyl)ethyl)amino)-2-(2-methoxyethyl)-2,3-dihydro-1H-pyrrolo[3,4-c]pyridin-1-one] |
| 100 to 500 | 100 to 500 | 100 to 500 | CCN1Cc2c(ccnc2N[C@@H](C)c2cc(F)c(-c3ccnc(C(C)(F)F)c3)cc2F)C1=O [Compound 106, (S)-4-((1-(4-(2-(1,1-difluoroethyl)pyridin-4-yl)-2,5-difluorophenyl)ethyl)amino)-2-ethyl-2,3-dihydro-1H-pyrrolo[3,4-c]pyridin-1-one] |
| > 1000 | > 1000 | > 1000 | CCN1Cc2c(ccnc2N[C@@H](C)c2cc(F)c(-c3ccnc(C4(O)COC4)c3)cc2F)C1=O [Compound 94, (S)-4-((1-(2,5-difluoro-4-(2-(3-hydroxyoxetan-3-yl)pyridin-4-yl)phenyl)ethyl)amino)-2-ethyl-2,3-dihydro-1H-pyrrolo[3,4-c]pyridin-1-one] |
| > 1000 | > 1000 | > 1000 | CCN1Cc2c(N[C@@H](C)c3cn(-c4ccc(F)cc4)cn3)ncc(F)c2C1=O [Compound 57, (S)-2-ethyl-7-fluoro-4-((1-(1-(4-fluorophenyl)-1H-imidazol-4-yl)ethyl)amino)-2,3-dihydro-1H-pyrrolo[3,4-c]pyridin-1-one] |
| 100 to 500 | 100 to 500 | 100 to 500 | C[C@H](Nc1nccc2c1CN(CCO)C2=O)c1cc(F)c(-c2ccnc(C(C)(C)C)c2)cc1F [Compound 159, (S)-4-((1-(4-(2-(tert-butyl)pyridin-4-yl)-2,5-difluorophenyl)ethyl)amino)-2-(2-hydroxyethyl)-2,3-dihydro-1H-pyrrolo[3,4-c]pyridin-1-one] |
| < 100 | 100 to 500 | < 100 | CCN1Cc2c(ccnc2N[C@@H](C)c2cc(F)c(-c3cc(C(C)(C)F)ncc3CF)cc2F)C1=O [Compound 139, (S)-4-((1-(2,5-difluoro-4-(5-(fluoromethyl)-2-(2-fluoropropan-2-yl)pyridin-4-yl)phenyl)ethyl)amino)-2-ethyl-2,3-dihydro-1H-pyrrolo[3,4-c]pyridin-1-one] |
| < 100 | < 100 | < 100 | C/C=C(\c1ccnc(-c2cc(F)c([C@H](C)Nc3nccc4c3CN(CC)C4=O)cc2F)c1)C(F)(F)F [Compound 125, (S,E)-4-((1-(2,5-difluoro-4-(4-(1,1,1-trifluorobut-2-en-2-yl)pyridin-2-yl)phenyl)ethyl)amino)-2-ethyl-2,3-dihydro-1H-pyrrolo[3,4-c]pyridin-1-one] |
| > 1000 | > 1000 | 500 to 1000 | CCN1Cc2c(ccnc2N[C@@H](C)c2cc(F)c(-c3ccnc(Cl)c3)cc2F)C1=O [Compound 95, (S)-4-((1-(4-(2-chloropyridin-4-yl)-2,5-difluorophenyl)ethyl)amino)-2-ethyl-2,3-dihydro-1H-pyrrolo[3,4-c]pyridin-1-one] |
| 100 to 500 | 100 to 500 | 500 to 1000 | CCN1Cc2c(ccnc2N[C@@H](C)c2ccc(Oc3cccc4c3ccn4C)c(F)c2)C1=O [Compound 2, (S)-2-ethyl-4-((1-(3-fluoro-4-((1-methyl-1H-indol-4-yl)oxy)phenyl)ethyl)amino)-2,3-dihydro-1H-pyrrolo[3,4-c]pyridin-1-one] |
| > 1000 | > 1000 | 500 to 1000 | CCN1Cc2c(ccnc2N[C@@H](C)c2cc(F)c(-c3ccnc(-c4cccnc4)c3)cc2F)C1=O [Compound 99, (S)-4-((1-(4-([2,3′-bipyridin]-4-yl)-2,5-difluorophenyl)ethyl)amino)-2-ethyl-2,3-dihydro-1H-pyrrolo[3,4-c]pyridin-1-one] |
| < 100 | < 100 | < 100 | CCN1Cc2c(ccnc2N[C@@H](C)c2cc(F)c(-c3cc(C(C)(C)F)c(COC)cn3)cc2F)C1=O [Compound 147, (S)-4-((1-(2,5-difluoro-4-(4-(2-fluoropropan-2-yl)-5-(methoxymethyl)pyridin-2-yl)phenyl)ethyl)amino)-2-ethyl-2,3-dihydro-1H-pyrrolo[3,4-c]pyridin-1-one] |
| 100 to 500 | > 1000 | > 1000 | CCN1Cc2c(N[C@@H](C)c3ccc(Oc4ccc(C)cc4)c(F)c3)ncc(F)c2C1=O [Compound 18, (S)-2-ethyl-7-fluoro-4-((1-(3-fluoro-4-(p-tolyloxy)phenyl)ethyl)amino)-2,3-dihydro-1H-pyrrolo[3,4-c]pyridin-1-one] |
| < 100 | < 100 | < 100 | CCN1Cc2c(ccnc2N[C@@H](C)c2cc(F)c(-c3cc(C(C)(C)F)c(F)c(C)n3)cc2F)C1=O [Compound 133, (S)-4-((1-(2,5-difluoro-4-(5-fluoro-4-(2-fluoropropan-2-yl)-6-methylpyridin-2-yl)phenyl)ethyl)amino)-2-ethyl-2,3-dihydro-1H-pyrrolo[3,4-c]pyridin-1-one] |
| 500 to 1000 | > 1000 | > 1000 | CCN1Cc2c(ccnc2N[C@@H](C)c2ccc(Oc3ccc4c(ccn4CCO)c3)c(F)c2)C1=O [Compound 10, (S)-2-ethyl-4-((1-(3-fluoro-4-((1-(2-hydroxyethyl)-1H-indol-5-yl)oxy)phenyl)ethyl)amino)-2,3-dihydro-1H-pyrrolo[3,4-c]pyridin-1-one] |
| 500 to 1000 | > 1000 | > 1000 | CCN1Cc2c(ccnc2N[C@@H](C)c2ccc(Oc3ccnc4ccccc34)c(F)c2)C1=O [Compound 30, (S)-2-ethyl-4-((1-(3-fluoro-4-(quinolin-4-yloxy)phenyl)ethyl)amino)-2,3-dihydro-1H-pyrrolo[3,4-c]pyridin-1-one] |
| < 100 | < 100 | < 100 | CCN1Cc2c(ccnc2N[C@@H](C)c2cc(F)c(-c3cc(C(C)(C)F)c(C(F)(F)F)cn3)cc2F)C1=O [Compound 148, (S)-4-((1-(2,5-difluoro-4-(4-(2-fluoropropan-2-yl)-5-(trifluoromethyl)pyridin-2-yl)phenyl)ethyl)amino)-2-ethyl-2,3-dihydro-1H-pyrrolo[3,4-c]pyridin-1-one] |
| < 100 | < 100 | < 100 | CCN1Cc2c(ccnc2N[C@@H](C)c2cc(F)c(-c3cc(C(C)(C)F)ccn3)cc2F)C1=O [Compound 112, (S)-4-((1-(2,5-difluoro-4-(4-(2-fluoropropan-2-yl)pyridin-2-yl)phenyl)ethyl)amino)-2-ethyl-2,3-dihydro-1H-pyrrolo[3,4-c]pyridin-1-one] |
| < 100 | < 100 | < 100 | CCN1Cc2c(ccnc2N[C@@H](C)c2cc(F)c(-c3ccnc(C(C)(C)C(F)(F)F)c3)cc2F)C1=O [Compound 105, (S)-4-((1-(2,5-difluoro-4-(2-(1,1,1-trifluoro-2-methylpropan-2-yl)pyridin-4-yl)phenyl)ethyl)amino)-2-ethyl-2,3-dihydro-1H-pyrrolo[3,4-c]pyridin-1-one] |
| 100 to 500 | 100 to 500 | > 1000 | CCN1Cc2c(ccnc2N[C@@H](C)c2ccc(Cc3ccc(F)c(C)c3)c(F)c2)C1=O [Compound 51, (S)-2-ethyl-4-((1-(3-fluoro-4-(4-fluoro-3-methylbenzyl)phenyl)ethyl)amino)-2,3-dihydro-1H-pyrrolo[3,4-c]pyridin-1-one] |

| SMILES | IC50 (IDH1 R132H) [nM] | IC50 (IDH1 R132C) [nM] | IC50 [1] [nM] |
| --- | --- | --- | --- |
| CCN1Cc2c(ccnc2N[C@@H](C)c2cc(F)c(-c3cc(OC(C)(C)C)ncc3C)cc2F)C1=O [Compound 151, (S)-4-((1-(4-(2-(tert-butoxy)-5-methylpyridin-4-yl)-2,5-difluorophenyl)ethyl)amino)-2-ethyl-2,3-dihydro-1H-pyrrolo[3,4-c]pyridin-1-one] | < 100 | 100 to 500 | < 100 |
